Among the data in ChEMBL document CHEMBL3132769, “Fragment growing to retain or alter the selectivity of anchored kinase hinge-binding fragments” (Medchemcomm, 2014) are inhibition values, retold here.

In assay [1] the target is Protein kinase C beta type (Homo sapiens) (UniProt P05771). The assay is described as follows: Inhibition of human full length PKC beta2 expressed in baculovirus assessed as substrate phosphorylation using fluorescence-labelled peptides as substrate at 0.2 uM after 90 mins by microfluidic peptide phosphorylation assay.
Sequence of Protein kinase C beta type (Homo sapiens) (P05771 2-671 limits assumed): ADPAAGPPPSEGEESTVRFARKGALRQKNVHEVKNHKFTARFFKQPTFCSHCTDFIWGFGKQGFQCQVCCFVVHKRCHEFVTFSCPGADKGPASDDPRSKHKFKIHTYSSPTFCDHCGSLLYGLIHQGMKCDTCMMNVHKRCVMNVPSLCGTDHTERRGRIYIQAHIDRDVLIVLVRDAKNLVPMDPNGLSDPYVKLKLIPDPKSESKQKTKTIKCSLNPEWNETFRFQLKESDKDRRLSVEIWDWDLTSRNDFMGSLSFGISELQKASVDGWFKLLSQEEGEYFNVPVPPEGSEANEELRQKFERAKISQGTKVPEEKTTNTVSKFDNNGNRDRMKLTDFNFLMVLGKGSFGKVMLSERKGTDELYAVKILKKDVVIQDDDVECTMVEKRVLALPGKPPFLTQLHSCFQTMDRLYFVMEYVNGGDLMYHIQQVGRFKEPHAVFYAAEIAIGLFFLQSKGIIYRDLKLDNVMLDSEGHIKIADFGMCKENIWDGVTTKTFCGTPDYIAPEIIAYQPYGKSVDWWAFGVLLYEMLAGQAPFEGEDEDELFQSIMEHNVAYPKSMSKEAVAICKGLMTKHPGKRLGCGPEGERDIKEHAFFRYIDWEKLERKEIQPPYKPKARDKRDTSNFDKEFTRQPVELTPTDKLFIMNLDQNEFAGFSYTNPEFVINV
Assay [2] has as its target T1, Interleukin-1 receptor-associated kinase 4 (Homo sapiens) (UniProt Q9NWZ3).
T1 sequence (whole entry): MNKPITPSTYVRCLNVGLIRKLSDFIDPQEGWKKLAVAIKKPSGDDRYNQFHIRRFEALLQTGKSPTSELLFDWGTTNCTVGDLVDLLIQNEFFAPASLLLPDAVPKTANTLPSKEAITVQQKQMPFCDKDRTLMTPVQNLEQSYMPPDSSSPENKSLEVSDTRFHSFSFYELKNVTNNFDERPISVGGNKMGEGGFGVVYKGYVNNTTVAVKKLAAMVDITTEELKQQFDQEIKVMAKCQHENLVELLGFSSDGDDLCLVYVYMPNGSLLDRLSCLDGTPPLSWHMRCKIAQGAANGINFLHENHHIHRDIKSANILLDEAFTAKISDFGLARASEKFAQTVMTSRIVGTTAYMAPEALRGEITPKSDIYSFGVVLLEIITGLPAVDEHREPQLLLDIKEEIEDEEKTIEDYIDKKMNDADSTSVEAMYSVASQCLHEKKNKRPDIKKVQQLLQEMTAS
The assay is described as follows: Inhibition of human IRAK4 catalytic domain expressed in baculovirus assessed as substrate phosphorylation using fluorescence-labelled peptides as substrate at 0.1 uM after 90 mins by microfluidic peptide phosphorylation assay.

Assay [3] has as its target Tyrosine-protein kinase Lck (Homo sapiens) (UniProt P06239). The following applies: 0.1 uM.
Description: Inhibition of human full length LCK expressed in baculovirus assessed as substrate phosphorylation using fluorescence-labelled peptides as substrate at 0.1 uM after 90 mins by microfluidic peptide phosphorylation assay
The target of assay [4] is Fibroblast growth factor receptor 1 (Homo sapiens) (UniProt P11362). The assay is described as follows: Inhibition of human FGFR1 catalytic domain expressed in baculovirus assessed as substrate phosphorylation using fluorescence-labelled peptides as substrate at 8 uM after 90 mins by microfluidic peptide phosphorylation assay.
Sequence of Fibroblast growth factor receptor 1 (Homo sapiens) (P11362 22-822 limits assumed): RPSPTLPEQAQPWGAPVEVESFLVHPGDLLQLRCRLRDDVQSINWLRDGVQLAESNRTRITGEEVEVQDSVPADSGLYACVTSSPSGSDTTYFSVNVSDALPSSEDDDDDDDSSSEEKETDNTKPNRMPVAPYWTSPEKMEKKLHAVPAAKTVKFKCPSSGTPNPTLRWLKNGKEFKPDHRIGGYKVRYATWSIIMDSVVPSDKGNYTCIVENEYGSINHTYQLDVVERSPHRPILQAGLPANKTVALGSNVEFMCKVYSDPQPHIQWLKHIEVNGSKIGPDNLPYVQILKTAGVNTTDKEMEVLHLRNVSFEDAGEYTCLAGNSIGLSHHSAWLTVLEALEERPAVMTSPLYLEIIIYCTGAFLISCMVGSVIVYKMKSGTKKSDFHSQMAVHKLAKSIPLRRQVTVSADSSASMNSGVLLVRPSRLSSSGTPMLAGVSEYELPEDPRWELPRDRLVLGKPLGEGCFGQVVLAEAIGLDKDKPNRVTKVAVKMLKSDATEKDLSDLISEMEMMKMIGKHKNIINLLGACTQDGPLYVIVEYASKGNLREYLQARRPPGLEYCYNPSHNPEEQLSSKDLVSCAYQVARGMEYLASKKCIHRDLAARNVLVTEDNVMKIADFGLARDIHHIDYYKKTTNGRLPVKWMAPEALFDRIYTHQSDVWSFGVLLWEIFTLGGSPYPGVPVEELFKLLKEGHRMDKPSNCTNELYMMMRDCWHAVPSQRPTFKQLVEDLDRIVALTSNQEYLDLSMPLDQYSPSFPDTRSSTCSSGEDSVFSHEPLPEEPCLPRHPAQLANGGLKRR
The test system of assay [5] is T2, Receptor-type tyrosine-protein kinase FLT3 (Homo sapiens), P36888 [D835Y].
T2 sequence (whole entry): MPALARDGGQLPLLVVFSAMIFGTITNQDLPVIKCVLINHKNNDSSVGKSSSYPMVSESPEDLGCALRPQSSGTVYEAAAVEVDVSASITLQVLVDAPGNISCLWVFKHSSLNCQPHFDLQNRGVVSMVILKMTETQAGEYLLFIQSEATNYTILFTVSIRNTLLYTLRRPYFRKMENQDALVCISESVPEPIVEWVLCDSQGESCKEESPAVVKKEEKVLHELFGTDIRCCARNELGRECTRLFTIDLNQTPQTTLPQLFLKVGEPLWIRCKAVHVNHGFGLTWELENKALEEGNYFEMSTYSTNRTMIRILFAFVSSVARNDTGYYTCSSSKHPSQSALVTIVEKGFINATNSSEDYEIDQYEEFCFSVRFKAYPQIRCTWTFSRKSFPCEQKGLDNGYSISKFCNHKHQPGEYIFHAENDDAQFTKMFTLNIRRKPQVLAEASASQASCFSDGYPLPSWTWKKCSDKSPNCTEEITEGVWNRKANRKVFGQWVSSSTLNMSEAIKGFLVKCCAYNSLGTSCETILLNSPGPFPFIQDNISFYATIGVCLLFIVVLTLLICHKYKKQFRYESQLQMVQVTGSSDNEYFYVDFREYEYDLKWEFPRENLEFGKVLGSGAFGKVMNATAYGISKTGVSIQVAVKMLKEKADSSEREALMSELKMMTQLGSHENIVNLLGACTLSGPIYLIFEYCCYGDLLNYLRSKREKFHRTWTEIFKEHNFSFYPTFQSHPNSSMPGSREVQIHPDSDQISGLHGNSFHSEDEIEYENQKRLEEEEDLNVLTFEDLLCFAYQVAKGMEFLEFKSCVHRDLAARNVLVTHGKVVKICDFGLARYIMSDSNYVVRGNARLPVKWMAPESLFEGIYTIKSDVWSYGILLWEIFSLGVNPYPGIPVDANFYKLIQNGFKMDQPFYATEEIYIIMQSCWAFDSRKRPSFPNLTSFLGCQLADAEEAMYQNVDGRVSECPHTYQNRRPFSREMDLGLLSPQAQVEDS
Description: Inhibition of human FLT3 D835Y mutant catalytic domain expressed in baculovirus assessed as substrate phosphorylation using fluorescence-labelled peptides as substrate at 8 uM after 90 mins by microfluidic peptide phosphorylation assay.

The target of assay [6] is Fibroblast growth factor receptor 4 (Homo sapiens) (UniProt P22455). The assay is described as follows: Inhibition of human FGFR4 catalytic domain expressed in baculovirus assessed as substrate phosphorylation using fluorescence-labelled peptides as substrate at 8 uM after 90 mins by microfluidic peptide phosphorylation assay.
Sequence of Fibroblast growth factor receptor 4 (Homo sapiens) (P22455 22-802 limits assumed): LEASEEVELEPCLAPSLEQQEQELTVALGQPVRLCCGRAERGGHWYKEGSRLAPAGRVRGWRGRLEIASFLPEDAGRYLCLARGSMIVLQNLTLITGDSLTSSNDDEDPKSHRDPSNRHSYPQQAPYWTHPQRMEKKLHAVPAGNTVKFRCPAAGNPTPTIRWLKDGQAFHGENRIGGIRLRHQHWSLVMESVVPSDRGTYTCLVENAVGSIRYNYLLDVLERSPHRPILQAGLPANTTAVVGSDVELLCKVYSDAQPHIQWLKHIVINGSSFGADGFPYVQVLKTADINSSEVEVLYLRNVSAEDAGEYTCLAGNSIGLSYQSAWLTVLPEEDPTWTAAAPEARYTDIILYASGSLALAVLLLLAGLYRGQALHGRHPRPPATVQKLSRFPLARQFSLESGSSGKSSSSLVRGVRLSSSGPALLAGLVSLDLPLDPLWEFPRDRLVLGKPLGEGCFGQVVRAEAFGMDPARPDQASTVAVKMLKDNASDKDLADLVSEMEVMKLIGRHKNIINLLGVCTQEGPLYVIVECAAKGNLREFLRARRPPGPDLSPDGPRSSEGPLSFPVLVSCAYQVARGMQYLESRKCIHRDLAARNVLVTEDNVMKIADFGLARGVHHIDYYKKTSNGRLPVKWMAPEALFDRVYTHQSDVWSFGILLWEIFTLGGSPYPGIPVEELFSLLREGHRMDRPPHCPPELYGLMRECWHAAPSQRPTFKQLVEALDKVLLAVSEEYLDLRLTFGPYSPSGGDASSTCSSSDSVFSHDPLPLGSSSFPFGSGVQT
The target in assay [7] is Fibroblast growth factor receptor 1 (Homo sapiens) (UniProt P11362). The assay is described as follows: Inhibition of human FGFR1 catalytic domain expressed in baculovirus assessed as substrate phosphorylation using fluorescence-labelled peptides as substrate at 1000 uM after 90 mins by microfluidic peptide phosphorylation assay.
The test system of assay [8] is Tyrosine-protein kinase ABL1 (Homo sapiens), P00519 [Q252H]. Description: Inhibition of human truncated ABL Q252H mutant expressed in baculovirus assessed as substrate phosphorylation using fluorescence-labelled peptides as substrate at 0.06 uM after 90 mins by microfluidic peptide phosphorylation assay.
For assay [9], the target named is Cyclin-dependent kinase 2 (Homo sapiens) (UniProt P24941). Description: Inhibition of human full length CDK2 expressed in baculovirus assessed as substrate phosphorylation using fluorescence-labelled peptides as substrate at 0.06 uM after 90 mins by microfluidic peptide phosphorylation assay.
Assay [10] deals with Serine/threonine-protein kinase MARK2 (Homo sapiens) (UniProt Q7KZI7). Description: Inhibition of human full length MARK2 expressed in baculovirus assessed as substrate phosphorylation using fluorescence-labelled peptides as substrate at 2 uM after 90 mins by microfluidic peptide phosphorylation assay.
Sequence of Serine/threonine-protein kinase MARK2 (Homo sapiens) (Q7KZI7 whole entry): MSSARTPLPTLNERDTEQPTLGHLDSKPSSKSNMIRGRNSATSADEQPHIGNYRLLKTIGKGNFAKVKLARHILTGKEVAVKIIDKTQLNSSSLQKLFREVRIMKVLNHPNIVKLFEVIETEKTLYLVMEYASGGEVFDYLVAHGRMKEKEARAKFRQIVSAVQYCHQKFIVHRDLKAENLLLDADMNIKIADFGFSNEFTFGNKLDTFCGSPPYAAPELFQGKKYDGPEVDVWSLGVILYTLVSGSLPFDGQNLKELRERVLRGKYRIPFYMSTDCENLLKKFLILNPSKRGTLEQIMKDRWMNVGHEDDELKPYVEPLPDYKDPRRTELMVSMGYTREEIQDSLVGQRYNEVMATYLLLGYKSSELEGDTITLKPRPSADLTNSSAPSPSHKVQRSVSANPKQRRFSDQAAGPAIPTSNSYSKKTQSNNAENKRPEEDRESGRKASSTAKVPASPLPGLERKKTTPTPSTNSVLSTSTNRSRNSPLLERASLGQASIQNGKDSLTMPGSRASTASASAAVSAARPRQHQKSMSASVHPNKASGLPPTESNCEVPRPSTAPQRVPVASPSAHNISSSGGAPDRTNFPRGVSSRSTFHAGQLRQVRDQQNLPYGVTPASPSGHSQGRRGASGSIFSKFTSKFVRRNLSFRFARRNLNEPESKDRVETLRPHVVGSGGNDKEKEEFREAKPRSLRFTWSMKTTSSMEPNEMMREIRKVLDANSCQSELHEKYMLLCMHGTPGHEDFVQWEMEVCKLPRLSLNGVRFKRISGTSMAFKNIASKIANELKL
The target of assay [11] is T3, Testis-specific serine/threonine-protein kinase 1 (Homo sapiens) (UniProt Q9BXA7).
T3 sequence (whole entry): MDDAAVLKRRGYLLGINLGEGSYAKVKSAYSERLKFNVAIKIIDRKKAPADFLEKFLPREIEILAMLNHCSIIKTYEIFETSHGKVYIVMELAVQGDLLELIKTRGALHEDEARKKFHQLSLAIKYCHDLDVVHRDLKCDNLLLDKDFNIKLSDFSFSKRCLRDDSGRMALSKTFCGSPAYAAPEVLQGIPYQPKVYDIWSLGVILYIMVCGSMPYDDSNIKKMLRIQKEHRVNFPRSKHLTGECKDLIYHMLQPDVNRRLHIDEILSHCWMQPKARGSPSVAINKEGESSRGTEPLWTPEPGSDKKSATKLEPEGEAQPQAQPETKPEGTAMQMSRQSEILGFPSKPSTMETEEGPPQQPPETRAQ
Description: Inhibition of human full length TSSK1 expressed in baculovirus assessed as substrate phosphorylation using fluorescence-labelled peptides as substrate at 70 uM after 90 mins by microfluidic peptide phosphorylation assay.

Assay [12] concerns the target MAP kinase p38 (Homo sapiens) (UniProt O15264+Q15759+Q16539+P53778). Description: Inhibition of human full length p38 beta2 expressed in Escherichia coli cell assessed as substrate phosphorylation using fluorescence-labelled peptides as substrate at 70 uM after 90 mins by microfluidic peptide phosphorylation assay.

Molecules are shown by their SMILES.

Sequence of Tyrosine-protein kinase Lck (Homo sapiens) (P06239 2-509 limits assumed): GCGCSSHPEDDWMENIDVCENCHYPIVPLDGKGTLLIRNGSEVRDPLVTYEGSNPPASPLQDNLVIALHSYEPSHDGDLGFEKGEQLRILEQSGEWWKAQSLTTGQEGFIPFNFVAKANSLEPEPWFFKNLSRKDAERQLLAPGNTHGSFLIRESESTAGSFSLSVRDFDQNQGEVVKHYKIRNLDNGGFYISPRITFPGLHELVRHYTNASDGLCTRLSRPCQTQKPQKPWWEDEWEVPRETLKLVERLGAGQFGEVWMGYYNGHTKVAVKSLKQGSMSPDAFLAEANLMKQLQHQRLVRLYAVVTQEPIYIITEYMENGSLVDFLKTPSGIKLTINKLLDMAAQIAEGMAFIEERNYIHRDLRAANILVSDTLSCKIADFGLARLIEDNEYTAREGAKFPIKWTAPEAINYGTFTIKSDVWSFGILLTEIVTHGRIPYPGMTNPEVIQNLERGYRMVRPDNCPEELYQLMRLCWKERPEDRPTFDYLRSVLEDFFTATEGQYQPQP

Usually inhibition stands for the share of the control response that was lost under treatment. With `Clc1ccc(C2(c3ccc(-c4ncnc5[nH]cnc45)cc3)CCNCC2)cc1`, the inhibition in assay [1] came to 38.5%. As to `C[C@H](CN(C)C)Oc1nc(Nc2cc3cccc(Cl)c3cn2)cnc1C#N`, the inhibition in assay [2] was found to be 11.5%; in assay [3], 0%.

`NCC1CCN(c2ncnc3[nH]ccc23)CC1`: the inhibition in assay [4] was 36.5%; in assay [5] it was 4.5%; in assay [6] it was 27.5%.

Regarding `c1cnc2[nH]ccc2c1`, in [7], the inhibition was determined as 64.5%.

With `NC1(Cc2ccc(Cl)cc2)CCN(c2ncnc3[nH]ccc23)CC1`, the figures for the inhibition in assay [8] and in assay [9] were 0% and 1%, respectively. As for `NC1CCN(c2ncnc3[nH]ccc23)CC1`, in assay [10], the inhibition stood at 0%. For `CNCc1ccc(-c2ncnc3[nH]cnc23)cc1`, the inhibition was found to be 62% in assay [11] and 1.5% in assay [12].
